The source of these data is PubChem BioAssay AID1259407 (Chemical Carcinogenesis Research Information System (CCRIS), 2018).

Calls of active or inactive are those of the source. No rule for the calls is given here.

The data set concerns CCRIS mutagenicity, Ames/micronucleus/aberration tests. The data set is described as follows: CCRIS mutagenicity studies.
Where [1] appears, read: Test System: AMES SALMONELLA TYPHIMURIUM, Strain/Indicator: TA98, Metabolic Activation: NONE, Method: PREINCUBATION
[2] abbreviates: Test System: AMES SALMONELLA TYPHIMURIUM, Strain/Indicator: TA98, Metabolic Activation: NONE, Method: STANDARD PLATE.
The mark [3] stands for this setting: Test System: AMES SALMONELLA TYPHIMURIUM, Strain/Indicator: TA100, Metabolic Activation: NONE, Method: STANDARD PLATE.
Setting [4] is: Test System: AMES SALMONELLA TYPHIMURIUM, Strain/Indicator: TA98, Metabolic Activation: RAT, LIVER, S-9, AROCLOR 1254, Method: STANDARD PLATE.
[5] abbreviates: Test System: AMES SALMONELLA TYPHIMURIUM, Strain/Indicator: TA100, Metabolic Activation: RAT, LIVER, S-9, AROCLOR 1254, Method: STANDARD PLATE.

`C=CC[Si](C)(C)C`: the mutagenic call is, setting by setting: (Test System: AMES SALMONELLA TYPHIMURIUM, Strain/Indicator: TA98, Metabolic Activation: HAMSTER, LIVER, S-9, AROCLOR 1254 (10%), Method: PREINCUBATION) “inactive; negative”; under setting [1], “inactive; negative”; (Test System: AMES SALMONELLA TYPHIMURIUM, Strain/Indicator: TA98, Metabolic Activation: RAT, LIVER, S-9, AROCLOR 1254 (10%), Method: PREINCUBATION) “inactive; negative”; (Test System: AMES SALMONELLA TYPHIMURIUM, Strain/Indicator: TA100, Metabolic Activation: HAMSTER, LIVER, S-9, AROCLOR 1254 (10%), Method: PREINCUBATION) “inactive; negative”; (Test System: AMES SALMONELLA TYPHIMURIUM, Strain/Indicator: TA100, Metabolic Activation: NONE, Method: PREINCUBATION) “inactive; negative”; (Test System: AMES SALMONELLA TYPHIMURIUM, Strain/Indicator: TA100, Metabolic Activation: RAT, LIVER, S-9, AROCLOR 1254 (10%), Method: PREINCUBATION) “inactive; negative”. The mutagenic call is “inactive; negative” (Test System: AMES SALMONELLA TYPHIMURIUM, Strain/Indicator: TA1535, Metabolic Activation: HAMSTER, LIVER, S-9, AROCLOR 1254 (10%), Method: PREINCUBATION); “inactive; negative” (Test System: AMES SALMONELLA TYPHIMURIUM, Strain/Indicator: TA1535, Metabolic Activation: NONE, Method: PREINCUBATION); “inactive; negative” (Test System: AMES SALMONELLA TYPHIMURIUM, Strain/Indicator: TA1535, Metabolic Activation: RAT, LIVER, S-9, AROCLOR 1254 (10%), Method: PREINCUBATION); “inactive; negative” (Test System: AMES SALMONELLA TYPHIMURIUM, Strain/Indicator: TA1537, Metabolic Activation: HAMSTER, LIVER, S-9, AROCLOR 1254 (10%), Method: PREINCUBATION); “inactive; negative” (Test System: AMES SALMONELLA TYPHIMURIUM, Strain/Indicator: TA1537, Metabolic Activation: NONE, Method: PREINCUBATION); “inactive; negative” (Test System: AMES SALMONELLA TYPHIMURIUM, Strain/Indicator: TA1537, Metabolic Activation: RAT, LIVER, S-9, AROCLOR 1254 (10%), Method: PREINCUBATION). The mutagenic call (Test System: AMES SALMONELLA TYPHIMURIUM, Strain/Indicator: TA1538, Metabolic Activation: HAMSTER, LIVER, S-9, AROCLOR 1254 (10%), Method: PREINCUBATION) was “inactive; negative”; the mutagenic call (Test System: AMES SALMONELLA TYPHIMURIUM, Strain/Indicator: TA1538, Metabolic Activation: NONE, Method: PREINCUBATION) was “inactive; negative”; the mutagenic call (Test System: AMES SALMONELLA TYPHIMURIUM, Strain/Indicator: TA1538, Metabolic Activation: RAT, LIVER, S-9, AROCLOR 1254 (10%), Method: PREINCUBATION) was “inactive; negative”; the mutagenic call (Test System: MOUSE LYMPHOMA, Strain/Indicator: L5178Y (TK+/TK-), Metabolic Activation: NONE, Method: SUSPENSION/PLATE) was “inactive; negative. reevaluation of results: negative”; the mutagenic call (Test System: MOUSE LYMPHOMA, Strain/Indicator: L5178Y (TK+/TK-), Metabolic Activation: RAT, LIVER, S-9, AROCLOR 1254, Method: SUSPENSION/PLATE) is “inactive; negative. reevaluation of results: negative”.
For `Cc1ccc(N=Nc2c(O)c(C(=O)O)cc3ccccc23)c(S(=O)(=O)O)c1`, the mutagenic call is “inactive; negative” under setting [2]; “inactive; negative” (Test System: AMES SALMONELLA TYPHIMURIUM, Strain/Indicator: TA98, Metabolic Activation: RAT LIVER S-9, AROCLOR 1254, Method: STANDARD PLATE); “inactive; negative” under setting [3]; “inactive; negative” (Test System: AMES SALMONELLA TYPHIMURIUM, Strain/Indicator: TA100, Metabolic Activation: RAT LIVER S-9, AROCLOR 1254, Method: STANDARD PLATE).
With `c1ccc2c(c1)cc1c3c2ccc2cccc(c23)C1`, the mutagenic call under setting [2] was “inactive; negative”, the mutagenic call under setting [4] is “active; positive” and the mutagenic call under setting [5] is “active; positive”.
`CCCCCC(C)[N+](=O)[O-]` (stereo not drawn): under “Test System: UDS RAT HEPATOCYTES, Strain/Indicator: THY INCORP, Metabolic Activation: NONE”, the mutagenic call was “active; positive”.
On to `CCN(CC)CCOc1ccc(C(=C(Cl)c2ccccc2)c2ccccc2)cc1`, for which the mutagenic call is, setting by setting: under setting [1], “inactive; negative”; (Test System: AMES SALMONELLA TYPHIMURIUM, Strain/Indicator: TA98, Metabolic Activation: RAT LIVER S-9, 3-METHYLCHOLANTHRENE, Method: PREINCUBATION) “active; positive”; (Test System: AMES SALMONELLA TYPHIMURIUM, Strain/Indicator: TA98, Metabolic Activation: RAT LIVER S-9, AROCLOR 1254, Method: PREINCUBATION) “active; positive”; (Test System: AMES SALMONELLA TYPHIMURIUM, Strain/Indicator: TA98, Metabolic Activation: RAT LIVER S-9, PHENOBARBITAL, Method: PREINCUBATION) “active; positive”; (Test System: AMES SALMONELLA TYPHIMURIUM, Strain/Indicator: TA98, Metabolic Activation: RAT LIVER S-9, STREPTOZOCINE, Method: PREINCUBATION) “active; positive”.
For the compound `CC=C(C)C(=O)O[C@H]1[C@H](OC(C)=O)[C@]2(CO)[C@H](O)C[C@]3(C)C(=CC[C@@H]4[C@@]5(C)CC[C@@H](O[C@@H]6O[C@H](C(=O)O)[C@@H](O[C@@H]7O[C@H](CO)[C@@H](O)[C@H](O)[C@H]7O)[C@H](O)[C@H]6O[C@@H]6O[C@H](CO)[C@@H](O)[C@H](O)[C@H]6O)[C@](C)(CO)[C@@H]5CC[C@]43C)[C@@H]2CC1(C)C`, the mutagenic call is “inactive; negative” (Test System: AMES SALMONELLA TYPHIMURIUM, Strain/Indicator: TA97, Metabolic Activation: NONE, Method: STANDARD PLATE); “inactive; negative” (Test System: AMES SALMONELLA TYPHIMURIUM, Strain/Indicator: TA97, Metabolic Activation: RAT, LIVER, S-9, AROCLOR 1254, Method: STANDARD PLATE); “inactive; negative” under setting [2]; “inactive; negative” under setting [4]; “inactive; negative” under setting [3]; “inactive; negative” under setting [5]. Further, the mutagenic call reads like this: (Test System: AMES SALMONELLA TYPHIMURIUM, Strain/Indicator: TA102, Metabolic Activation: NONE, Method: STANDARD PLATE) “inactive; negative”; (Test System: AMES SALMONELLA TYPHIMURIUM, Strain/Indicator: TA102, Metabolic Activation: RAT, LIVER, S-9, AROCLOR 1254, Method: STANDARD PLATE) “inactive; negative”.
